The compounds below were run against T1, His-hSHIP1 enzyme (Homo sapiens, UniProt Q92835) (assay: His-hSHIP1 phosphatase activity assay (IP4 substrate, Biomol Green)). Settings: percentage increase relative to background; concentrations ≦300 μM.
T1 sequence (Q92835 1-1189): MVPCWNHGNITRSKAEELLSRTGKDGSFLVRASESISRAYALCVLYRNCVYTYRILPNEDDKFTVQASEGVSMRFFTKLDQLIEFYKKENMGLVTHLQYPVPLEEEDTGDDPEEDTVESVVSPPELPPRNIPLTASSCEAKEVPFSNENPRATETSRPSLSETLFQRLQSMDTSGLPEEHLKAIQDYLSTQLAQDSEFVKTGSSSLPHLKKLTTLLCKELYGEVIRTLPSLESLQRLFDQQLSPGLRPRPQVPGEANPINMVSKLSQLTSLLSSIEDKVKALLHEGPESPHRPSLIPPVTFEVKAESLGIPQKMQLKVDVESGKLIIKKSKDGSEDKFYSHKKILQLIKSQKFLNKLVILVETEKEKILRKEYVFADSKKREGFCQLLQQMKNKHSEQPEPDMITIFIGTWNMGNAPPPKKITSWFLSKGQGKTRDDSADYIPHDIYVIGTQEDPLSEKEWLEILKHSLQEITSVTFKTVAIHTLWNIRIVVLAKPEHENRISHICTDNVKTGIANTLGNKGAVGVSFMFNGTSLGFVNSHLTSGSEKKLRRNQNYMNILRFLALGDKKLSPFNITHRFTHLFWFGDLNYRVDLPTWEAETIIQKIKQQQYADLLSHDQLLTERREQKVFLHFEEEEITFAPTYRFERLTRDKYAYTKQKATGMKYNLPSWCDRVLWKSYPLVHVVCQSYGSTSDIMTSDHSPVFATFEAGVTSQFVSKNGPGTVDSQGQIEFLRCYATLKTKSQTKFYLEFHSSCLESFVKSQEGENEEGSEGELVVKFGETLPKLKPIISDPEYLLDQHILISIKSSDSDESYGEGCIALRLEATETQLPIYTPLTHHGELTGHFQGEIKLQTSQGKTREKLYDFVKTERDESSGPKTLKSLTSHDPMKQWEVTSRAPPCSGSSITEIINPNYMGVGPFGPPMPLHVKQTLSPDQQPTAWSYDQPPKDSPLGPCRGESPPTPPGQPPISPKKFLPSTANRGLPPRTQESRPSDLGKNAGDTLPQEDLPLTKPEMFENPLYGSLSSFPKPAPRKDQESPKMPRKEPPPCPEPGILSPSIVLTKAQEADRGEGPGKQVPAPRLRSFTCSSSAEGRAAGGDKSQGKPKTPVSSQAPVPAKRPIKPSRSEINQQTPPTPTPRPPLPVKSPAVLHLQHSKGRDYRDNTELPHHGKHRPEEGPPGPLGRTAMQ
Assay type: biochemical
Procedure: Test compounds were dissolved in 95% ethanol to form stock solutions. Before screening, the stock solutions were diluted with Phosphatase Assay Buffer (20 mM Tris-HCL, 10 mM MgCl2 pH 7.5, 0.02% Tween 20) to form working assay solutions that contained 10% ethanol. The assay was carried out on 96-well microtiter plates using a modified procedure of that reported by Ong et al., Blood 110, 1942-1949, 2007 and Yang et al., Org Lett 7, 1073-1076, 2005, both of which references are incorporated herein by reference in their entirety.
Each reaction contained 5 μL of His-hSHIP1 enzyme (15-20 ng), 10 μL of the substrate, 1,3,4,5-inositol tetrakisphosphate (IP4; 50 μM final), 5 μL of Phosphatase Assay Buffer, and 5 μL of test compound at various concentrations in 10% ethanol (0-300 μM final). Control blanks were also prepared by replacing His-hSHIP1 enzyme, IP4, or test compounds with Phosphatase Assay Buffer. After adding the reaction components in a 96-well microtiter plate on ice, the reaction was mixed by briefly shaking the plate vigorously. The reaction was then incubated at 37° C. for 15 min with gentle shaking followed by addition of 100 μL of Biomol Green Reagent (BIOMOL, PA, USA) to terminate the reaction. The free phosphate released from IP4 by His-hSHIP1 bound to the Biomol Green Reagent, turning the solution green in colour. After incubating the mixture for 20 min at room temperature for colour development, the absorbance was read with a SpectraMax Plus 96-well plate reader (Molecular Devices, Sunnyvale, Calif., USA) at a wavelength of 650 nm.
Percent (%) activation in Table 2 is expressed as a percentage increase relative to background. Scoring is expressed as follows: + (<50%); ++ (≧50% but <65%); +++ (≧65%).

Row | SMILES | Scoring: percent (%) activation of His-hSHIP1 enzyme
1 | COc1cc(C)c2c(c1)OC[C@@H]1[C@@]3(C)CCCC(C)(C)[C@@H]3CC[C@@]21C [Compound No. 5, (1R,10R,11S,16S)-5-methoxy-1,3,11,15,15-pentamethyl-8-oxatetracyclo[8.8.0.0^2,7.0^11,16]octadeca-2,4,6-triene] | ++ (≧50% but <65%)
2 | COc1cc(C)cc2c1[C@]1(C)CC[C@H]3C(C)(C)CCC[C@]3(C)[C@H]1CS2 [Compound No. 14, (1R,10R,11S,16S)-3-methoxy-1,5,11,15,15-pentamethyl-8-thiatetracyclo[8.8.0.0^2,7.0^11,16]octadeca-2,4,6-triene] | + (<50%)
3 | Cc1cc(O)c2c(c1)SC[C@@H]1[C@@]3(C)CCCC(C)(C)[C@@H]3CC[C@@]21C [Compound No. 15, (1R,10R,11S,16S)-1,5,11,15,15-pentamethyl-8-thiatetracyclo[8.8.0.0^2,7.0^11,16]octadeca-2,4,6-trien-3-ol] | +++ (≧65%)
4 | Cc1cc(O)c2c(c1)S(=O)(=O)C[C@@H]1[C@@]3(C)CCCC(C)(C)[C@@H]3CC[C@@]21C [Compound No. 16, (1R,10R,11S,16S)-3-hydroxy-1,5,11,15,15-pentamethyl-8-thiatetracyclo[8.8.0.0^2,7.0^11,16]octadeca-2,4,6-triene-8,8-dione] | +++ (≧65%)
5 | COc1cc(OC)c2c(c1)S(=O)(=O)C[C@@H]1[C@@]3(C)CCCC(C)(C)[C@@H]3CC[C@@]21C [Compound No. 23, (1R,10R,11S,16S)-3,5-dimethoxy-1,11,15,15-tetramethyl-8-thiatetracyclo[8.8.0.0^2,7.0^11,16]octadeca-2,4,6-triene-8,8-dione] | +++ (≧65%)
6 | COc1cc(O)cc2c1[C@]1(C)CC[C@H]3C(C)(C)CCC[C@]3(C)[C@H]1CS2 [Compound No. 25, (1R,10R,11S,16S)-3-methoxy-1,11,15,15-tetramethyl-8-thiatetracyclo[8.8.0.0^2,7.0^11,16]octadeca-2,4,6-trien-5-ol] | ++ (≧50% but <65%)
7 | CC1(C)CCC[C@]2(C)[C@H]3CSc4cc(O)cc(O)c4[C@]3(C)CC[C@@H]12 [Compound No. 26, (1R,10R,11S,16S)-1,11,15,15-tetramethyl-8-thiatetracyclo[8.8.0.0^2,7.0^11,16]octadeca-2,4,6-triene-3,5-diol] | + (<50%)
8 | CC1(C)CCC[C@]2(C)[C@H]3C[S+]([O-])c4cc(O)cc(O)c4[C@]3(C)CC[C@@H]12 (stereo partly drawn) [Compound No. 27, (1R,10R,11S,16S)-3,5-dihydroxy-1,11,15,15-tetramethyl-8-thiatetracyclo[8.8.0.0^2,7.0^11,16]octadeca-2,4,6-trien-8-one] | ++ (≧50% but <65%)
9 | COc1cc(O)c2c(c1)SC[C@@H]1[C@@]3(C)CCCC(C)(C)[C@@H]3CC[C@@]21C [Compound No. 29, (1R,10R,11S,16S)-5-methoxy-1,11,15,15-tetramethyl-8-thiatetracyclo[8.8.0.0^2,7.0^11,16]octadeca-2,4,6-trien-3-ol] | ++ (≧50% but <65%)
10 | COc1cc(O)c2c(c1)OC[C@@H]1[C@@]3(C)CCCC(C)(C)[C@@H]3CC[C@@]21C [Compound No. 39, (1R,10R,11S,16S)-5-methoxy-1,11,15,15-tetramethyl-8-oxatetracyclo[8.8.0.0^2,7.0^11,16]octadeca-2,4,6-trien-3-ol] | ++ (≧50% but <65%)
11 | COc1cc(O)c2c(c1)[C@]1(C)CC[C@H]3C(C)(C)CCC[C@]3(C)[C@H]1CO2 [Compound No. 44, (1R,10R,11S,16S)-4-methoxy-1,11,15,15-tetramethyl-8-oxatetracyclo[8.8.0.0^2,7.0^11,16]octadeca-2,4,6-trien-6-ol] | ++ (≧50% but <65%)
12 | CC1(C)CCC[C@]2(C)[C@H]3CS(=O)(=O)c4cc(O)cc(C(=O)O)c4[C@]3(C)CC[C@@H]12 [compound 65, (1R,10R,11S,16S)-5-hydroxy-1,11,15,15-tetramethyl-8,8-dioxo-8λ^6-thiatetracyclo[8.8.0.0^2,7.0^11,16]octadeca-2,4,6-triene-3-carboxylic acid] | ++ (≧50% but <65%)
13 | CNC(=O)c1cc(O)cc2c1[C@]1(C)CC[C@H]3C(C)(C)CCC[C@]3(C)[C@H]1CS2(=O)=O [compound 66, (1R,10R,11S,16S)-5-hydroxy-N,1,11,15,15-pentamethyl-8,8-dioxo-8λ^6-thiatetracyclo[8.8.0.0^2,7.0^11,16]octadeca-2,4,6-triene-3-carboxamide] | + (<50%)
14 | CNC(=O)c1cc2c(cc1O)S(=O)(=O)C[C@@H]1[C@@]3(C)CCCC(C)(C)[C@@H]3CC[C@@]21C [compound 73, (1R,10R,11S,16S)-5-hydroxy-N,1,11,15,15-pentamethyl-8,8-dioxo-8λ^6-thiatetracyclo[8.8.0.0^2,7.0^11,16]octadeca-2,4,6-triene-4-carboxamide] | + (<50%)
15 | CNC(=O)c1cc(O)cc2c1[C@]1(C)CC[C@H]3C(C)(C)CCC[C@]3(C)[C@H]1CS2 [compound 76, (1R,10R,11S,16S)-5-hydroxy-N,1,11,15,15-pentamethyl-8-thiatetracyclo-[8.8.0.0^2,7.0^11,16]octadeca-2,4,6-triene-3-carboxamide] | + (<50%)
16 | CC1(C)CCC[C@]2(C)[C@H]3CS(=O)(=O)c4cc(O)cc(C#N)c4[C@]3(C)CC[C@@H]12 [compound 79, (1R,10R,11S,16S)-5-hydroxy-1,11,15,15-tetramethyl-8,8-dioxo-8λ^6-thiatetracyclo[8.8.0.0^2,7.0^11,16]octadeca-2,4,6-triene-3-carbonitrile] | + (<50%)
17 | COc1cc(C(=O)O)cc2c1[C@]1(C)CC[C@H]3C(C)(C)CCC[C@]3(C)[C@H]1CS2(=O)=O [compound 80, (1R,10R,11S,16S)-3-methoxy-1,11,15,15-tetramethyl-8,8-dioxo-8λ^6-thiatetracyclo[8.8.0.0^2,7.0^11,16]octadeca-2,4,6-triene-5-carboxylic acid] | + (<50%)
18 | COC(=O)c1cc(C(=O)O)cc2c1[C@]1(C)CC[C@H]3C(C)(C)CCC[C@]3(C)[C@H]1CS2(=O)=O [compound 84, (1R,10R,11S,16S)-3-(methoxycarbonyl)-1,11,15,15-tetramethyl-8,8-dioxo-8λ^6-thiatetracyclo[8.8.0.0^2,7.0^11,16]octadeca-2,4,6-triene-5-carboxylic acid] | + (<50%)
19 | CC1(C)CCC[C@]2(C)[C@H]3CS(=O)(=O)c4cc(C(=O)O)cc(C(=O)O)c4[C@]3(C)CC[C@@H]12 [compound 85, (1R,10R,11S,16S)-1,11,15,15-tetramethyl-8,8-dioxo-8λ^6-thiatetracyclo[8.8.0.0^2,7.0^11,16]octadeca-2,4,6-triene-3,5-dicarboxylic acid] | + (<50%)

Reference: patent US8101605B2, “SHIP1 modulators and methods related thereto” (Aquinox Pharmaceuticals Inc., priority 2009, dated 2012)
